# Laboratory results: paper PMC7278359, “Small molecule AX-024 reduces T cell proliferation independently of CD3ϵ/Nck1 interaction, which is governed by a domain swap in the Nck1-SH3.1 domain” (The Journal of Biological Chemistry, 2020)
# “Also recorded” adds a separate entry of the source.
# Tests used:
# CD4 T cell proliferation = CD4 T cell proliferation by CFSE dilution, anti-CD3 stimulation; format: cell-based, human; conditions: human CD3+ T cells (n = 4 donors), CFSE dilution gated on CD4, 0.2 μg·ml^−1 plate-bound anti-CD3 (OKT3), no co-stimulation, 4 days, 0.2% DMSO
# Description: Figure 2. […] CD4 T cell proliferation was assessed upon stimulation with anti-CD3ϵ by CFSE dilution as a measure for cellular proliferation, analyzed on day 4. For rapamycin and AX-024–treated cells, the dashed line indicates control proliferation at a DMSO concentration of 0.2%. For CD3ϵ-derived peptides 11Rwt, 11R085, and 11Rscr, the dashed line indicates control proliferation at 0.3% DMSO, 0.3% PBS. 11Rwt has sequence R11-G3-[…], 11R085 R11-G3-Q(dK)[…], and 11Rscr R11-G3-[…](dK)PQP. A polyarginine tag is used to enable cell penetration of the peptides ([10]). The gray boxes indicate concentrations of compound leading to decreased cell viability. These values should be disregarded. Binding of peptides 11Rwt and 11R085, but not 11Rscr, to Nck-SH3.1 was confirmed by NMR spectroscopy (Fig. S1). Asterisks, p < 0.05 as determined by a repeated-measure one-way analysis of variance with Holm–Sidak's multiple-comparison test to DMSO/PBS. Dotted lines, mean DMSO/PBS values. Error bars, S.D.
# Fresh human peripheral blood mononuclear cells (PBMCs) from healthy donors (n = 4) were prepared from buffy coats. CD3^+ T cells were isolated by immunomagnetic separation (negative selection, StemCell, lot 18A87710), carboxyfluorescein succinimidyl ester (CFSE)-labeled, resuspended in StemCell Immunocult^TM-XF T cell expansion medium, and treated with compounds or vehicle for 2 h at room temperature. The isolated CD3^+ T cells were stained for CD3, CD4, and CD8, and their purity was assessed by flow cytometry. Cells were then cultured in a 96-well flat-bottomed plate (10^5 cells/well), precoated for 1 h at 37 °C with 0.2 μg·ml^−1 plate-bound anti-CD3 (clone OKT3, BioLegend). […] Cells were cultured in the presence of AX-024, rapamycin, peptide 11Rwt, peptide 11R85, peptide 11Rscr (derived from Ref. [11]; see below for sequences), or vehicle for 4 days. At the end of culture, cells were stained for viability, and CFSE dilution was assessed by flow cytometry (with gating on CD4 versus CD8).
# Nck1-SH3.1 [1] = biological target: T1, Nck1-SH3.1 (Homo sapiens, UniProt P16333); assay: SPR binding to immobilized Nck1-SH3.1; conditions: AX-024 up to 100 μM; 1260 RU; 20 °C, pH 7.8
# T1 construct: His10-Avi-TEV-Nck1-SH3.1 (residues 1–61, MM 11,847 Da) was biotinylated and immobilized via streptavidin; made in house; host or cells: Escherichia coli BL21 (DE3)
# Description: SPR experiments were conducted on a T200 Biacore instrument (GE Healthcare, Uppsala, Sweden) at 20 °C in 10 mM HEPES/NaOH, pH 7.8, 150 mM NaCl, 1 mM TCEP. […] Streptavidin is immobilized on the CAP sensor by way of double-strand DNA formation. A ssDNA is covalently coupled to the sensor surface, and a complementary DNA strand, covalently linked to streptavidin, is hybridized. To regenerate the surface, the DNA duplex is dissociated by washing with high-ionic strength solution. […] The reference channel for binding studies contained the same streptavidin-coated surface blocked with biotin.
# Five replicates were performed for each CD3ϵ concentration (Table S1), whereas for the qualitative assessment of the APVA variant, only a single titration was performed.
# SPR equilibrium signals were corrected for the signal in the reference channel and buffer contributions. The resulting SPR amplitudes were plotted as a function of peptide concentration, and a simple binding equation describing a Langmuir adsorption isotherm was fit to the data (GraphPad Prism) to extract the equilibrium dissociation constant Kd. (Eq. 1) RU=RUmax·[peptide]/[peptide]+Kd
# 5-HT2B = assay: Selectivity panel (Eurofins, CEREP); format: binding; conditions: 10 μM AX-024, single point; human receptor; radioactive antagonist ligand
# Description: (§1) AX-024 was submitted to a selectivity panel comprising 50 recurring off-targets, including G protein–coupled receptors, channels, transporters, and metabolic enzymes (Eurofins, CEREP).
# (§2) Supplemental Table 1: SPR peptide titrations
# (§3) Single point measurements at 10 μM for 50 targets in a selectivity panel.
# (§4) human receptors, except for the Ca2+ channel, which is from rat. A radioactive antagonist ligand was used
# (§5) for the detection. The tests were conducted by Euro fins (https://www.eurofinsdiscoveryservices.com ).
# [2] = test system: Ca2+ channel (CaV1.2) (L, diltiazem site); assay: Selectivity panel (Eurofins, CEREP); format: binding; conditions: probe radioactive antagonist ligand, 10 μM AX-024, single point, rat Ca2+ channel
# Description: as §1, §2, §3, §4, §5
# Dopamine D1 = assay: Selectivity panel (Eurofins, CEREP); format: binding; conditions: 10 μM AX-024, single point; human receptor; radioactive antagonist ligand
# Description: as §1, §2, §3, §4, §5
# Histamine H3 = assay: Selectivity panel (Eurofins, CEREP); format: binding; conditions: 10 μM AX-024, single point; human receptor; radioactive antagonist ligand
# Description: as §1, §2, §3, §4, §5
# Muscarinic M1 = assay: Selectivity panel (Eurofins, CEREP); format: binding; conditions: 10 μM AX-024, single point; human receptor; radioactive antagonist ligand
# Description: as §1, §2, §3, §4, §5
# Muscarinic M2 = assay: Selectivity panel (Eurofins, CEREP); format: binding; conditions: 10 μM AX-024, single point; human receptor; radioactive antagonist ligand
# Description: as §1, §2, §3, §4, §5
# α 1A adrenoreceptor = assay: Selectivity panel (Eurofins, CEREP); format: binding; conditions: 10 μM AX-024, single point; human receptor; radioactive antagonist ligand
# Description: as §1, §2, §3, §4, §5
# Nck1-SH3.1 [3] = conditions: in vitro; ref [10]; cited from earlier work
# Description: (§6) The objective of the present study was to initiate development of an inhibitor of the Nck/TCR interaction, specifically by blocking binding of the first SH3 domain in Nck (Nck1-SH3.1) to the PRS in the CD3ϵ subunit of the TCR.
# T cell proliferation = conditions: response to weak antigens; ref [10]; cited from earlier work
# Description: as §6
structure (smiles),measurement,setting,value
"COc1ccc2c(c1)C(c1ccc(F)cc1)=C(CN1CCCC1)CO2.Cl [AX-024, 1-((4-(4-fluorophenyl)-6-methoxy-2H-chromen-3-yl)methyl)pyrrolidine hydrochloride]",inhibition of T cell proliferation,CD4 T cell proliferation,inhibited T cell proliferation
same,direct binding to immobilized Nck1-SH3.1 by SPR,Nck1-SH3.1 [1],does not bind to Nck1-SH3.1; also recorded: no direct binding of AX-024 to immobilized Nck1-SH3.1 was detectable
same,% inhibition,5-HT2B,80.1%
same,inhibition at 10 μM,[2],66.3%
same,% inhibition,Dopamine D1,85.3%
same,% inhibition,Histamine H3,95.1%
same,% inhibition,Muscarinic M1,95.0%
same,% inhibition,Muscarinic M2,81.3%
same,% inhibition,α 1A adrenoreceptor,79.3%
same,physical interaction with Nck1-SH3.1 (SPR and NMR),Nck1-SH3.1 [3],appeared to support physical interaction of AX-024 with the Nck1-SH3.1 domain
same,inhibition of T cell proliferation,T cell proliferation,inhibit T cell proliferation specifically in response to weak antigens
